Common to all, as to format: cell-based
The subject of one data set is primary cortical neurons. In words: Toxicity of drug alone in neuronal cells (Live-Dead assay). From the text:
More specifically, primary cortical neurons were recovered from embryonic day 18 rat brains as described previously (Michaelis et al., Immunological Localization And Kinetic Characterization Of A Na+/Ca2+Exchanger In Neuronal And Nonneuronal Cells, Brain Res. 661 104-116 (1994)). Briefly, about 10 to 16 brains were removed from fetuses delivered by cesarean section, and the cortices dissected out. The neurons were isolated and suspended in DMEM/F12 supplemented with 10% FBS and plated on sterile dishes or cover slips coated with 10 μg/ml poly-D-lysine and 5 μg/ml mouse laminin. After 24 hours, the serum-containing medium was removed, and neurons were maintained in Neurobasal medium (Gibco) with 2% B-27 supplements (Gibco). Cells were maintained in culture at 37° C. in 5% CO2 and 97% humidity for 7 to 8 eight days in vitro (DIV) before use. […] Stock solutions of Aβ were prepared in sterile water at a concentration of 1.3 mM and stored at −20° C. Aliquots of the stock solutions were diluted to 1 mM in sterile 50 mM Tris-HCl, pH 7.4, and incubated at 37° C. for 24 hours to promote oligomerization of the peptides prior to treatment of the neurons. The effects of KU-1/A4, GA, Aβ, or the indicated combinations on neuronal viability were determined by monitoring cell survival using the Live-Dead assay as previously described. […] Digital images from 6 fields per dish were captured, and the number of viable (green) and dead (red) cells counted. All experiments were conducted with duplicate dishes from at least two neuronal preparations for each treatment, with about 1,000 cells analyzed/treatment condition. The data are expressed as the fraction of viable cells calculated from the total number of neurons counted under each treatment condition. The significance of differences between cultures exposed to various treatment conditions was determined using Student's t-test.

Data set [1] has as its system MCF-7 (estrogen receptor positive breast cancer cells). Kind of data set: Anti-proliferation activity against MCF-7 cells (MTS/PMS). The note with it: up to 100 μM. In outline: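 Viability after 72 h compound treatment (1% DMSO final, 37° C., 5% CO2) measured by MTS/PMS; plating density 2000 cells/well with overnight attachment.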
Data set [2] deals with Hsp90 client protein Her-2 in Skbr3 breast cancer cells. In words: Degradation of Her-2, Western blot in Skbr3 cells. The procedure:
After incubation, the cells were harvested, lysed, and equal amounts of the protein lysates loaded into SDS wells. After electrophoresis, the gel was probed with Her-2 and actin (control) antibodies.
(In general: Immunoblotting shows a protein as a band on a membrane.)

Data set [3] concerns Hsp90, androgen receptor and AKT in LNCaP prostate cancer cells. In words: Western blot of Hsp90 and client proteins (AR, AKT) in LNCaP cells. The conditions noted are these: 24 hours. The procedure: FIG. 3 (top panel) is a western blot analysis of prostate cancer LNCaP cells treated with KU-1/A4. The bottom panel is a western blot analysis of prostate cancer LAPC-4 cells incubated with KU-1/A4. Actin was used as a control in both assays. […] Western blot analysis of the effects of KU-1/A4 on Hsp90 client proteins in prostate cancer LNCaP cells. Cells were treated with varying concentrations of KU-1/A4 for 24 hours and probed for the androgen receptor (“AR”), protein kinase […] (“AKT”), Hsp90, and actin.
The steroid hormone receptors are also dependent upon the Hsp90 protein folding machinery for activation and hormone binding. To determine whether KU-1/A4 had similar effects on the androgen receptor, KU-1/A4 was tested in both a mutated androgen receptor-dependent prostate cancer cell line (LNCaP) and a wild type androgen receptor prostate cancer cell line (LAPC-4). More specifically, the prostate cancer cells were grown in RPMI with 10% fetal calf serum in a standard fashion. Once the cells had reached near confluence, they were treated with vehicle (DMSO) or varying concentrations of KU-1/A4 ranging from 10 nm to 100 μM for 24 hours. Cells were harvested and cell lysates prepared. […] More specifically, Western Blot analysis protein concentrations in serum samples were determined by the Pierce BCA protein assay kit according to the manufacturer's protocol. […]

Take `CO[C@@H]1[C@@H](O)[C@@H](O)[C@H](Oc2ccc3cc(NC(C)=O)c(=O)oc3c2)OC1(C)C` [KU-1/A4, N-(7-((2R,3R,4S,5R)-3,4-dihydroxy-5-methoxy-6,6-dimethyl-tetrahydro-2H-pyran-2-yloxy)-2-oxo-2H-chromen-3-yl)acetamide]: the “neurotoxicity of compound alone” value with primary cortical neurons (100 nM (20× the EC50)) is given as “did not result in any observed neurotoxicity”. Also, the “toxic effects in neuronal cells” value in the data set with primary cortical neurons (10 μM, 72 hours) was “no toxic effects”. Moreover, the “toxicity of the drug alone to neurons” value in the data set with primary cortical neurons (primary neurons, drug alone) is “no toxicity”. For the same compound, the “anti-proliferative effects MCF-7” value in data set [1] is reported as “no anti-proliferative effects”. In data set [2] (24 hours, normalized against actin), the “IC50 (concentration producing 50% degradation of Her-2)” value is “low micromolar range”. In data set [2] (tested at 100 nM, 1 μM and 10 μM), the “concentrations between which a rapid decrease in Her-2 was observed” value was “between 100 nM and 1 μM”. Further, in data set [3], the “concentration at which degradation of client proteins AR and AKT occurs” value worked out at 1 µM; the “lowest concentration inducing Hsp90” value came out at 10 nM.

For the origin of these results see patent US9120774B2 (University of Kansas, priority 2009, dated 2015).
